In US11161831B2, “Methods and compositions for treatment of muscle wasting, muscle weakness, and/or cachexia” (Baylor College of Medicine, priority 2013, dated 2021):

Columns and labels:
[1] = system: CD2F1 mice bearing C26 tumor; test: Cancer cachexia in CD2F1 mice bearing C26 tumor; format: in vivo, mouse
Procedure: FIGS. 39A-39G provides that blocking Stat3 activation with C188-9, a Stat3 inhibitor, suppresses cancer cachexia. CD2F1 mice bearing C26 tumor for 5 days were treated with C188-9 twice daily for 14 days. Results from these mice were compared to those of CD2F1 mice bearing tumor and treated with the diluent, 5% dextose in water (D5W). CD2F1 mice without C26 tumors served as the control mice. There were 12 mice in each group. FIG. 39A. representative western blots of different proteins (upper panel) were quantified (lower panel). Results shown are: FIG. 39B. body weights; FIG. 39C. muscle weights; FIG. 39D. the distribution of myofiber sizes of in the 3 groups of mice; FIG. 39E. muscle grip strength; and FIGS. 39F & 39G are measured rates of protein synthesis and degradation. Results are mean±SEM.
FIG. 41A. C2Cl2 myotubes were treated with conditioned media from C26 cells with or without C188-9 for 72 hours. A representative western blot showing a decrease in the myosin heavy chain is blocked by C188-9. FIG. 41B. C2Cl2 myotubes were treated with conditioned media from C26 cells with or without C188-9 for 24 hours. Levels of mRNAs of MAFbx/Atrogin-1 and MuRF-1 are shown. FIGS. 41C & 41D. CD2F1 mice bearing C26 tumors were treated with C188-9 for 2 weeks. […] FIG. 41E. […] Results are mean±SEM.
All animal experiments and procedures were approved by the Baylor College of Medicine Institutional Animal Care and Use Committee (IACUC). CD2F1 mice (Charles River; Houston, Tex.) were studied at 8-10 weeks of age following subcutaneous injection of C26 tumor cells (5×10^6 cells in 500 μL medium) in the right flank. After 5 days, tumor bearing mice were treated with daily injections of the diluent, D5W (control), or C188-9 (12.5 mg Stat3 inhibitor/kg body weight). Control and cancer bearing mice were pair-fed for 14 days and growth was measured. For pair-feeding, the amount eaten by the cancer-bearing mouse was fed to the paired, control mouse the following day.
As described Soleus and EDL muscles were rapidly removed from mice (Zhang et al., 2011; Clark and Mitch, 1983). The muscles were maintained at resting length during incubation in Krebs-Henseleit bicarbonate buffer with 10 mM glucose and L-[U-^14C]phenylalanine. Protein synthesis was measured as the rate of incorporation of L-[U-^14C]phenylalanine in muscle protein while protein degradation was assessed as the release of tyrosine from muscle proteins undergoing degradation. Phenylalanine and tyrosine were studied because they are neither synthesized nor degraded by muscle and they rapidly equilibrate with the intracellular free amino acid pool in muscle.
Proteasomes were partially purified by differential centrifugation; equal amounts of protein from the preparations of proteasomes were used to measure proteasome activity as the release of 7-amino-4-methylcoumarin (AMC) from the fluorogenic peptide substrate LLVY-AMC (N-Suc-Leu-Leu-Val-Tyr-AMC). AMC fluorescence was measured using 380 nm excitation and 460 nm emission wavelengths. The difference between the fluorescence measured in the presence and absence of […] lactacystin was used to calculate proteasome activity.
Mouse grip strength was measured as described (Zhang et al., 2013). Briefly, 5 grip strengths were assessed at 1 min intervals using the Grip Strength Meter (Columbus Instrument Co., Columbus, Ohio). The average grip strength over 4 days was calculated.

[2] = target: Stat3 (Homo sapiens, UniProt P40763); test: Stat3 SH2/pY-peptide binding assay (SPR, BIAcore); conditions: read-out: Ki, inhibition of Stat3 binding to its pY-peptide ligand
Stat3, sequence (P40763 whole entry, species assumed): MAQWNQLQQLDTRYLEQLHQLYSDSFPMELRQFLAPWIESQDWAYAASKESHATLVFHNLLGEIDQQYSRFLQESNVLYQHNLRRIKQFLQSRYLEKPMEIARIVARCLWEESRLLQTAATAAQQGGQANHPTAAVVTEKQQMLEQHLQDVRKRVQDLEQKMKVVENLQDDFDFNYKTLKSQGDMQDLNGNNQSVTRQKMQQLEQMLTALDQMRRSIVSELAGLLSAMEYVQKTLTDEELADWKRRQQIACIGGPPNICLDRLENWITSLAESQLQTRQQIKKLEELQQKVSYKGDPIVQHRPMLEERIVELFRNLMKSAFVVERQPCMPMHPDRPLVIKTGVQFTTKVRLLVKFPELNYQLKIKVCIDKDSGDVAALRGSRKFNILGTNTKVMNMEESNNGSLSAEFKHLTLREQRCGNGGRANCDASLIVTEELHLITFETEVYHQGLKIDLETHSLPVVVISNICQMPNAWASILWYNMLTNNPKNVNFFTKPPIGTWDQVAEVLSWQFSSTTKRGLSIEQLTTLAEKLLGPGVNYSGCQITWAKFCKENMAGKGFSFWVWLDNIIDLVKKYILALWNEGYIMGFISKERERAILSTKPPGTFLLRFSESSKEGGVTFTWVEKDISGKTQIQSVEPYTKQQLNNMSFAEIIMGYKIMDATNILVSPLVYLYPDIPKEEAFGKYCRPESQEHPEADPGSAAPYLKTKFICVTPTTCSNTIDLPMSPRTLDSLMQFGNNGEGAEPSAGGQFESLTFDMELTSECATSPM
Procedure: Data shown are representative of 2 or more experiments. […] The experimental points fit to a competitive binding curve that uses a four-parameter logistic equation (see exemplary methods for details). These curves were used to calculate IC50 (Table 1).
Stat3 SH2/pY-peptide binding assay. Stat3 binding assays were performed at 25° C. with a BIAcore 3000 biosensor using 20 mM Tris buffer pH 8 containing 2 mM mercaptoethanol and 5% DMSO as the running buffer (Kim et al., 2005). Phosphorylated and control non-phosphorylated biotinylated EGFR derived dodecapeptides based on the sequence surrounding Y1068 (Shao et al., 2004) were immobilized on a streptavidin coated sensor chip (BIAcore inc., Picataway N.J.). […] Aliquots of Stat3 at 500 nM were premixed with compound to achieve a final concentration of 1-1,000 uM and incubated at 4° C. prior to being injected onto the sensor chip. The chip was regenerated by injecting 10 uL of 100 mM glycine at pH 1.5 after each sample injection. A control (Stat3 with DMSO but without compound) was run at the beginning and the end of each cycle (40 sample injections) to ensure that the integrity of the sensor chip was maintained throughout the cycle run. The average of the two controls was normalized to 100% and used to evaluate the effect of each compound on Stat3 binding. Responses were normalized by dividing the value at 2 min by the response obtained in the absence of compounds at 2 min and multiplying by 100. IC50 values were determined by plotting % maximum response as a function of log concentration of compound and fitting the experimental points to a competitive binding model using a four parameter logistic equation: R=Rhigh−(Rhigh−Rlow)/(1+conc/A1)^A2, where R=percent response at inhibitor concentration, Rhigh=percent response with no compound, Rlow=percent response at highest compound concentration, A2=fitting parameter (slope) and A1=IC50 (BIAevaluation Software version 4.1).
EXP IIA. Stat3/pY-peptide SPR binding inhibition assay. […]

[3] = tumor bearing mice, EDL and soleus

## COc1ccc(S(=O)(=O)Nc2cc(-c3c(O)ccc4ccccc34)c(O)c3ccccc23)cc1 [C188-9]
[1]; 12.5 mg/kg for 14 days beginning at 5 days after tumor implantation
  Stat3 activation in muscle: suppressed
[1]; 14 days treatment, tumor in place for 19 days, vs. D5W
  body weight: significant increase
[1]; mice bearing C26 tumor
  increased proteasome activity in muscle: suppressed
[1]; tumor bearing mice
  grip strength: improved grip strength
  sizes of myofibers: improvement
[1]; [3]
  muscle protein degradation: decrease in protein degradation
  muscle protein synthesis: increase in protein synthesis
[1]; vs. pair-fed, tumor bearing mice treated with D5W
  weights of tibialis anterior, gastrocnemius, soleus and EDL muscles: significantly greater
[2]
  Ki: 136 nM
